Results from PMC8514817, “De Novo Design of Antimicrobial Peptides With a Special Charge Pattern and Their Application in Combating Plant Pathogens” (Frontiers in Plant Science, 2021).
In brackets after ≈: the same amount, converted by molar mass. Read-outs that look alike come from different tables or passages of the source. Where a SMILES comes first, the peptide text is derived from it. The star is where a group is joined. Palmitoyl = CCCCCCCCCCCCCCCC(=O)*; Myristoyl = CCCCCCCCCCCCCC(=O)*

What was measured:
Rs = type: cell-based, Ralstonia solanacearum; settings: crude peptide, 5 μl of 64 μg/ml in 20 μl, bacteria OD600=0.4 in water, 2 h, confocal microscopy
Ech = settings: up to 32 μg/ml
Botrytis cinerea (Bc) [1] = experiment: Plant disease response, Bc infection of Arabidopsis Col0 leaves; type: in vivo, Arabidopsis thaliana; settings: crude peptide 16 μg/ml mixed with Bc spores (10^5 spores/ml), Arabidopsis Col0 leaves, 47–70 h post-inoculation, vs water
Bc = settings: up to 32 μg/ml; for MIC: spores, 96 h; for MBC/MFC / MFC: spotted on PD plate 24~72 h
Pcc = settings: up to 32 μg/ml
Cgl FST02 = settings: up to 32 μg/ml; for MIC: spores, 96 h; for MBC/MFC / MFC: spotted on PD plate 24~72 h
[2] = system: Pectobacterium carotovorum subsp. carotovorum (Pcc); experiment: Plant disease response, Pcc infection of Arabidopsis Col0 leaves; type: in vivo, Arabidopsis thaliana; settings: crude peptide 16 μg/ml mixed with Pcc, wounded leaves of Arabidopsis Col0, 16–28 h post-inoculation, vs water
Rs Pss4 = settings: Table 5, minimal medium, crude peptides, up to 32 μg/ml; for MIC: 96 h; for MBC/MFC: spotted on rich agar 48 h
Rs Pss190 = settings: Table 5, minimal medium, crude peptides, up to 32 μg/ml; for MIC: 96 h; for MBC/MFC: spotted on rich agar 48 h
[3] = system: Pectobacterium carotovorum subsp. carotovorum (Pcc); experiment: Plant disease response, Pcc infection of tomato L390 leaves; type: in vivo, Solanum lycopersicum; settings: crude peptide 16 μg/ml mixed with Pcc, detached wounded tomato L390 leaves, 16–28 h post-inoculation, vs water
Eco = type: cell-based, Escherichia coli
Botrytis cinerea (Bc) [4] = experiment: Plant disease response, Bc infection of tomato L390 leaves; type: in vivo, Solanum lycopersicum; settings: crude peptide 16 μg/ml mixed with Bc spores (10^4 spores/ml), 47–70 h post-inoculation, vs water
Eco DH5α [5] = settings: 48 h
Xev Xvt28 = settings: 24 h
Eco DH5α [6] = settings: DH5α, 24 h
[7] = Table 5, minimal medium, crude peptides, 96 h
[8] = Table 5, minimal medium, crude peptides, spotted on rich agar 48 h
[9] = Table 5, minimal (CD) medium, crude peptides
[10] = Table 7, rich media, spotted on rich agar 48 h

CCCCCCCCCCCCCC(=O)N[C@@H](Cc1c[nH]c2ccccc12)C(=O)N[C@@H](CCCCN)C(=O)N[C@@H](CCCCN)C(=O)N[C@@H](CC(C)C)C(=O)N[C@@H](CCCCN)C(=O)N[C@@H](CCCCN)C(=O)N[C@@H](CC(C)C)C(=O)N[C@@H](CC(C)C)C(=O)N[C@@H](CCCCN)C(=O)N[C@@H](CCCCN)C(=O)N[C@@H](CC(C)C)C(=O)N[C@@H](CCCCN)C(=O)N[C@@H](CCCCN)C(=O)N[C@@H](CC(C)C)C(N)=O [pepD2M] (Myristoyl-WKKLKKLLKKLKKL-NH2)
membranolytic effect (SYTOX Green staining) (Rs): significant membranolytic effect | MIC (Ech; [7]): 4 µg/mL (≈ 2 µM) | MBC/MFC (Ech; [8]): 8 µg/mL (≈ 3.99 µM) | development of the lesion caused by Bc, Arabidopsis (Botrytis cinerea (Bc) [1]): decreased the development of the lesion | MIC (Bc; [9]): 16 µg/mL (≈ 7.98 µM) | MBC/MFC (Bc; [9]): 16 µg/mL (≈ 7.98 µM) | MIC (Bc; Table 6, minimal media): 16 µg/mL (≈ 7.98 µM) | MFC (Bc; Table 6, minimal media): 32 µg/mL (≈ 16 µM) | MIC (Pcc; [7]): 4 µg/mL (≈ 2 µM) | MBC/MFC (Pcc; [8]): 4 µg/mL (≈ 2 µM) | MIC (Cgl FST02; [9]): 8 µg/mL (≈ 3.99 µM) | MBC/MFC (Cgl FST02; [9]): 16 µg/mL (≈ 7.98 µM) | MIC (Cgl FST02; Table 6, minimal media): 16 µg/mL (≈ 7.98 µM) | MFC (Cgl FST02; Table 6, minimal media): 16 µg/mL (≈ 7.98 µM) | size of disease lesions caused by Pcc, Arabidopsis [2]: significantly reduced the sizes of the disease lesions | MIC (Rs Pss4): 8 µg/mL (≈ 3.99 µM) | MBC/MFC (Rs Pss4): 8 µg/mL (≈ 3.99 µM) | MIC (Rs Pss190): 8 µg/mL (≈ 3.99 µM) | MBC/MFC (Rs Pss190): 8 µg/mL (≈ 3.99 µM) | size of disease lesions caused by Pcc, tomato [3]: significantly reduced the sizes of the disease lesions | membranolytic effect (SYTOX Green staining) (Eco): significant membranolytic effect | development of the lesion caused by Bc, tomato (Botrytis cinerea (Bc) [4]): decreased the development of the lesion

CCCCCCCCCCCCCCCC(=O)N[C@@H](Cc1c[nH]c2ccccc12)C(=O)N[C@@H](CCCCN)C(=O)N[C@@H](CCCCN)C(=O)N[C@@H](CC(C)C)C(=O)N[C@@H](CCCCN)C(=O)N[C@@H](CCCCN)C(=O)N[C@@H](CC(C)C)C(=O)N[C@@H](CC(C)C)C(=O)N[C@@H](CCCCN)C(=O)N[C@@H](CCCCN)C(=O)N[C@@H](CC(C)C)C(=O)N[C@@H](CCCCN)C(=O)N[C@@H](CCCCN)C(=O)N[C@@H](CC(C)C)C(N)=O [pepD2P] (Palmitoyl-WKKLKKLLKKLKKL-NH2)
MIC (Bc; Table 6, minimal media): 8 µg/mL (≈ 3.94 µM) | MFC (Bc; Table 6, minimal media): 8 µg/mL (≈ 3.94 µM) | MIC (Cgl FST02; Table 6, minimal media): 8 µg/mL (≈ 3.94 µM) | MFC (Cgl FST02; Table 6, minimal media): 8 µg/mL (≈ 3.94 µM)

CCCCCCCCCCCCCC(=O)N[C@@H](Cc1c[nH]c2ccccc12)C(=O)N[C@@H](CCCCN)C(=O)N[C@@H](CCCCN)C(=O)N[C@@H](CC(C)C)C(=O)N[C@@H](CCCCN)C(=O)N[C@@H](CCCCN)C(=O)N[C@@H](CC(C)C)C(=O)N[C@@H](CC(C)C)C(=O)N[C@@H](CCCCN)C(=O)N[C@@H](CCCCN)C(=O)N[C@@H](CC(C)C)C(N)=O [pepD3M] (Myristoyl-WKKLKKLLKKL-NH2)
MIC (Ech; [7]): 4 µg/mL (≈ 2.45 µM) | MBC/MFC (Ech; [8]): 8 µg/mL (≈ 4.89 µM) | development of the lesion caused by Bc, Arabidopsis (Botrytis cinerea (Bc) [1]): decreased the development of the lesion | MIC (Bc; [9]): 4 µg/mL (≈ 2.45 µM) | MBC/MFC (Bc; [9]): 8 µg/mL (≈ 4.89 µM) | MIC (Pcc; [7]): 4 µg/mL (≈ 2.45 µM) | MBC/MFC (Pcc; [8]): 4 µg/mL (≈ 2.45 µM) | MIC (Cgl FST02; [9]): 8 µg/mL (≈ 4.89 µM) | MBC/MFC (Cgl FST02; [9]): 8 µg/mL (≈ 4.89 µM) | size of disease lesions caused by Pcc, Arabidopsis [2]: significantly reduced the sizes of the disease lesions | MIC (Rs Pss4): 8 µg/mL (≈ 4.89 µM) | MBC/MFC (Rs Pss4): 16 µg/mL (≈ 9.78 µM) | MIC (Rs Pss190): 16 µg/mL (≈ 9.78 µM) | MBC/MFC (Rs Pss190): 16 µg/mL (≈ 9.78 µM) | size of disease lesions caused by Pcc, tomato [3]: significantly reduced the sizes of the disease lesions | development of the lesion caused by Bc, tomato (Botrytis cinerea (Bc) [4]): decreased the development of the lesion

Ac-WKKIKKIIKKIKKI-NH2 [pepI2]
MBC (Eco DH5α [5]): 4 µg/mL | MIC (Eco DH5α [5]): 4 µg/mL

Ac-WKKVKKVVKKVKKV-NH2 [pepV2]
MBC (Eco DH5α [5]): 32 µg/mL | MIC (Eco DH5α [5]): 32 µg/mL | MIC (Ech; Table 7, rich media, 48 h): – (“–” indicates that no antimicrobial activity was detected in rich media at the highest peptide concentration (32μg/ml) that was tested in this study.) | MBC (Ech; [10]): – (“–” indicates that no antimicrobial activity was detected in rich media at the highest peptide concentration (32μg/ml) that was tested in this study.) | MIC (Pcc; Table 7, rich media, 48 h): – (“–” indicates that no antimicrobial activity was detected in rich media at the highest peptide concentration (32μg/ml) that was tested in this study.) | MBC (Pcc; [10]): – (“–” indicates that no antimicrobial activity was detected in rich media at the highest peptide concentration (32μg/ml) that was tested in this study.)

Ac-WKLKLKLKLKLKLKLKLK-NH2 [pepE]
IC50 (Xev Xvt28): 2 µg/mL | IC50 (Eco DH5α [6]): 10 µg/mL

Ac-WKLLKKLLKKLKKLLKKL-NH2 [pepC]
IC50 (Xev Xvt28): 10 µg/mL | IC50 (Eco DH5α [6]): 10 µg/mL

Stearyl-WKKLKKLLKKLKKL-NH2 [pepD2S]
MIC (Bc; Table 6, minimal media): – (“–” indicates that no antimicrobial activity was detected in minimal media at the highest peptide concentration (32μg/ml) that was tested in this study.) | MFC (Bc; Table 6, minimal media): – (“–” indicates that no antimicrobial activity was detected in minimal media at the highest peptide concentration (32μg/ml) that was tested in this study.) | MIC (Cgl FST02; Table 6, minimal media): – (“–” indicates that no antimicrobial activity was detected in minimal media at the highest peptide concentration (32μg/ml) that was tested in this study.) | MFC (Cgl FST02; Table 6, minimal media): – (“–” indicates that no antimicrobial activity was detected in minimal media at the highest peptide concentration (32μg/ml) that was tested in this study.)
